The target of the assay is T1, IL-17A/A (Homo sapiens, UniProt Q16552).
T1 construct: purchased Genscript Z03228
T1 sequence (Q16552 24-155): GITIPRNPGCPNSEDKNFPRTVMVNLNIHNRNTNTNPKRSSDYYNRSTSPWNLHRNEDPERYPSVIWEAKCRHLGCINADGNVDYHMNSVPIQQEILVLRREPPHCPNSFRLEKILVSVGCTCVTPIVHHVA
Nature of the assay: HEK-Blue IL-17A/A inhibition assay (SEAP reporter). It is filed as cell-based. Particulars: HEK-Blue cells (HEK 293 expressing IL-17RA, IL-17RC, Act1); IL-17A/A stimulation; 20 hours; SEAP read at A630; 4-parameter fit. An outline of the steps:
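HEK 293 cells engineered with IL-17RA, IL-17RC and Act1 (NFκB-driven SEAP) given titrated compound (top final 10, 1 or 0.3 uM; 0.1% DMSO) just before IL-17A/A, then incubated 20 h. SEAP in media developed with Quanti-Blue, read at A630; IC50 by 4-parameter nonlinear fit.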

Turning to `CC(C)n1nccc1C(=O)N[C@H](C(=O)Nc1ccc([C@H](C)C(=O)NC2CNCC2(F)F)cc1F)C(C1CC1)C1CC1` (single isomer, unassigned) [Compound 134], the half-inhibitory concentration (IC50) fell in the range of 100 to 1000 nM.
As for `Cc1cc(NC(=O)[C@@H](NC(=O)c2nonc2C)C(C2CC2)C2CC2)c(F)cc1C(C)C(=O)N(C)CC(F)(F)F` (some centres unmarked) [Compound 211], the figure is less than 100 nM; as for `Cc1cc(NC(=O)[C@@H](NC(=O)c2ccnn2C(C)C)C(C2CC2)C2CC2)c(F)cc1[C@@H](C)C(=O)NCC(F)(F)F` (single isomer, unassigned) [Compound 99], greater than 1000 nM.
For `Cc1cc(NC(=O)[C@@H](NC(=O)c2ccnn2C(C)C)C(C2CC2)C2CC2)c(F)cc1C(C)C(=O)N1CC(O)CC1C(F)(F)F` (single isomer, unassigned) [Compound 172] the value was 100 to 1000 nM.
As for `CCn1nccc1C(=O)N[C@H](C(=O)Nc1ccc([C@H](C)C(=O)N(CC2CC2)CC(F)(F)F)cc1F)C1CCCCCC1` [Compound 8, N-((S)-1-cycloheptyl-2-((4-((S)-1-((cyclopropylmethyl)(2,2,2-trifluoroethyl)amino)-1-oxopropan-2-yl)-2-fluorophenyl)amino)-2-oxoethyl)-1-ethyl-1H-pyrazole-5-carboxamide], the figure is less than 100 nM; as for `CC(C)n1nccc1C(=O)N[C@H](C(=O)Nc1ccc([C@H](C)C(=O)N2CC(F)(CO)C2)cc1F)C(C1CC1)C1CC1` [Compound 33, N-((S)-1,1-dicyclopropyl-3-((2-fluoro-4-((S)-1-(3-fluoro-3-(hydroxymethyl)azetidin-1-yl)-1-oxopropan-2-yl)phenyl)amino)-3-oxopropan-2-yl)-1-isopropyl-1H-pyrazole-5-carboxamide], greater than 1000 nM; as for `CC(C)n1nccc1C(=O)N[C@H](C(=O)Nc1ccc([C@H](C)C(=O)N2CCOCC2C(F)(F)F)cc1F)C(C1CC1)C1CC1` (single isomer, unassigned) [Compound 19], 100 to 1000 nM.
For `CCn1nccc1C(=O)N[C@H](C(=O)Nc1ccc([C@H](C)C(=O)N(C)CC(F)(F)F)cc1F)C1CCC2(CC1)CC2` [Compound 75, 1-ethyl-N-((S)-2-((2-fluoro-4-((S)-1-(methyl(2,2,2-trifluoroethyl)amino)-1-oxopropan-2-yl)phenyl)amino)-2-oxo-1-(spiro[2.5]octan-6-yl)ethyl)-1H-pyrazole-5-carboxamide], the IC50 was in the range of 100 to 1000 nM.
For `CCOC(=O)CC(NC(=O)[C@@H](C)c1ccc(NC(=O)[C@@H](NC(=O)c2ccnn2C(C)C)C(C2CC2)C2CC2)c(F)c1)C(F)(F)F` (stereo partly drawn) [Compound 61, ethyl 3-((S)-2-(4-((S)-3,3-dicyclopropyl-2-(1-isopropyl-1H-pyrazole-5-carboxamido)propanamido)-3-fluorophenyl)propanamido)-4,4,4-trifluorobutanoate] the value was less than 100 nM; for `Cc1cc(NC(=O)[C@@H](NC(=O)c2ccnn2C)C(C2CC2)C2CC2)c(F)cc1C(C)C(=O)N(C)CC(F)(F)F` (some centres unmarked) [Compound 223], less than 100 nM.
For `CC(C)n1nccc1C(=O)N[C@H](C(=O)Nc1ccc([C@H](C)C(=O)N[C@H](CO)C2CCC2)cc1F)C(C1CC1)C1CC1` [Compound 155] the value was greater than 1000 nM; for `COCC(C(=O)NCC(F)(F)F)c1ccc(NC(=O)[C@@H](NC(=O)c2ccnn2C(C)C)C(C2CC2)C2CC2)c(F)c1` (single isomer, unassigned) [Compound 105], less than 100 nM; for `CC(C)n1nccc1C(=O)N[C@H](C(=O)Nc1ccc(C(CO)C(=O)NCC(F)(F)F)cc1F)C(C1CC1)C1CC1` (some centres unmarked) [Compound 193], greater than 1000 nM.
For `CC(C(=O)NCC(F)(F)F)c1cc(F)c(NC(=O)[C@@H](NC(=O)c2ccnn2C(C)C)C(C2CC2)C2CC2)cc1C(F)(F)F` (single isomer, unassigned) [Compound 120] the value was less than 100 nM.
Regarding `COc1cc(NC(=O)[C@@H](NC(=O)c2ccnn2C(C)C)C(C2CC2)C2CC2)c(F)cc1C(C)C(=O)NC(CO)C(F)(F)F` (single isomer, unassigned) [Compound 181], the IC50 lay in the range of 100 to 1000 nM.
For `Cc1cc(NC(=O)[C@@H](NC(=O)c2nonc2C)C2CCC(F)(F)CC2)c(F)cc1C(C)C(=O)NCC(F)(F)F` (some centres unmarked) [Compound 197] the value was greater than 1000 nM.
In the case of `CC(C)n1nccc1C(=O)N[C@H](C(=O)Nc1ccc([C@H](C)C(=O)N[C@@H](C)C(F)(F)F)cc1F)C(C1CC1)C1CC1` [Compound 55, N-((S)-1,1-dicyclopropyl-3-((2-fluoro-4-((S)-1-oxo-1-(((S)-1,1,1-trifluoropropan-2-yl)amino)propan-2-yl)phenyl)amino)-3-oxopropan-2-yl)-1-isopropyl-1H-pyrazole-5-carboxamide], the IC50 is 100 to 1000 nM.
For `CC(C)n1nccc1C(=O)N[C@H](C(=O)Nc1ccc([C@H](C)C(=O)N2C[C@@H](F)C[C@H]2C(F)(F)F)cc1F)C(C1CC1)C1CC1` [Compound 60, N-((S)-1,1-dicyclopropyl-3-((2-fluoro-4-((S)-1-((2S,4S)-4-fluoro-2-(trifluoromethyl)pyrrolidin-1-yl)-1-oxopropan-2-yl)phenyl)amino)-3-oxopropan-2-yl)-1-isopropyl-1H-pyrazole-5-carboxamide] the value was less than 100 nM.
Turning to `CC(C(=O)NCC(F)(F)F)c1cc(F)c(NC(=O)[C@@H](NC(=O)c2ccnn2C)C(C2CC2)C2CC2)cc1OC(F)(F)F` (some centres unmarked) [Compound 247], the IC50 was greater than 1000 nM.
For `CCc1nocc1C(=O)N[C@H](C(=O)Nc1ccc([C@H](C)C(=O)N(C)CC(F)(F)F)cc1F)C(C1CC1)C1CC1` [Compound 80, N-((S)-1,1-dicyclopropyl-3-((2-fluoro-4-((S)-1-(methyl(2,2,2-trifluoroethyl)amino)-1-oxopropan-2-yl)phenyl)amino)-3-oxopropan-2-yl)-3-ethylisoxazole-4-carboxamide], the IC50 is less than 100 nM.
As for `CC(C(=O)NCC(F)(F)F)c1cc(F)c(NC(=O)[C@@H](NC(=O)c2ccnn2C(C)C)C(C2CC2)C2CC2)cc1Cl` (single isomer, unassigned) [Compound 108], the figure is 100 to 1000 nM.
For `CC(C)n1nccc1C(=O)N[C@H](C(=O)Nc1ccc([C@H](C)C(=O)N[C@H](C)C(F)(F)F)cc1F)C(C1CC1)C1CC1` [Compound 54, N-((S)-1,1-dicyclopropyl-3-((2-fluoro-4-((S)-1-oxo-1-(((R)-1,1,1-trifluoropropan-2-yl)amino)propan-2-yl)phenyl)amino)-3-oxopropan-2-yl)-1-isopropyl-1H-pyrazole-5-carboxamide] the value was greater than 1000 nM; for `COCc1cc(NC(=O)[C@@H](NC(=O)c2ccnn2C(C)C)C(C2CC2)C2CC2)c(F)cc1C(C)C(=O)NCC(F)(F)F` (single isomer, unassigned) [Compound 124], less than 100 nM.
As for `CC(C(=O)NCC(F)(F)F)c1cc(F)c(NC(=O)[C@@H](NC(=O)c2ccnn2C(C)C)C(C2CC2)C2CC2)cc1Nc1ccccn1` (single isomer, unassigned) [Compound 262], the figure is greater than 1000 nM; as for `CC(C(=O)N(CC(N)=O)CC(F)(F)F)c1ccc(NC(=O)[C@@H](NC(=O)c2ccnn2C(C)C)C(C2CC2)C2CC2)c(F)c1` (single isomer, unassigned) [Compound 137], less than 100 nM.
`CCn1nccc1C(=O)N[C@H](C(=O)Nc1ccc(CC(=O)NCC(F)(F)F)cc1F)C1CCCCCC1` [Compound 2, (S)-N-(1-cycloheptyl-2-((2-fluoro-4-(2-oxo-2-((2,2,2-trifluoroethyl)amino)ethyl)phenyl)amino)-2-oxoethyl)-1-ethyl-1H-pyrazole-5-carboxamide]: the IC50 lay in the range of 100 to 1000 nM.
As for `CC(C(=O)NCC(F)(F)F)c1cc(F)c(NC(=O)[C@@H](NC(=O)c2ccnn2C(C)C)C(C2CC2)C2CC2)cc1N1CCCC1` (stereo partly drawn) [Compound 160, N-((2S)-1,1-dicyclopropyl-3-((2-fluoro-4-(1-oxo-1-((2,2,2-trifluoroethyl)amino)propan-2-yl)-5-(pyrrolidin-1-yl)phenyl)ammno)-3-oxopropan-2-yl)-1-isopropyl-1H-pyrazole-5-carboxamide], the figure is less than 100 nM.
`CC(=O)NC(C(=O)NCC(F)(F)F)c1ccc(NC(=O)[C@@H](NC(=O)c2ccnn2C(C)C)C(C2CC2)C2CC2)c(F)c1` (single isomer, unassigned) [Compound 167]: the IC50 was in the range of 100 to 1000 nM.
For `CCn1nccc1C(=O)N[C@H](C(=O)Nc1ccc(CC(=O)N(C)CC(F)(F)F)cc1F)C1CCCCCC1` [Compound 1, (S)-N-(1-cycloheptyl-2-((2-fluoro-4-(2-(methyl(2,2,2-trifluoroethyl)amino)-2-oxoethyl)phenyl)amino)-2-oxoethyl)-1-ethyl-1H-pyrazole-5-carboxamide] the value was 100 to 1000 nM; for `CCc1nonc1C(=O)N[C@H](C(=O)Nc1cc(C)c(C(C)C(=O)N(C)CC(F)(F)F)cc1F)C1CCC(F)(F)CC1` (some centres unmarked) [Compound 225], 100 to 1000 nM.
As to `CCn1nccc1C(=O)N[C@H](C(=O)Nc1ccc([C@H](C)C(=O)N(C)CC(F)(F)F)cc1F)[C@H](c1ccccc1Cl)C(C)C` [Compound 73, N-((2S,3S)-3-(2-chlorophenyl)-1-((2-fluoro-4-((S)-1-(methyl(2,2,2-trifluoroethyl)amino)-1-oxopropan-2-yl)phenyl)amino)-4-methyl-1-oxopentan-2-yl)-1-ethyl-1H-pyrazole-5-carboxamide], the IC50 was greater than 1000 nM.
As for `CCn1nccc1C(=O)N[C@H](C(=O)Nc1cc(OC(F)(F)F)c(C(C)C(=O)N(C)CC(F)(F)F)cc1F)C(C1CC1)C1CC1` (some centres unmarked) [Compound 245], the figure is 100 to 1000 nM.

For the origin of these results see patent US20240376056A1, “PHENYL ACETAMIDE BASED IL-17A MODULATORS AND USES THEREOF” (DiCE Alpha, Inc., priority 2021, published 2024).
